We go through four compounds from patent US11066399B2, “Ferroportin inhibitors” (Vifor (International) AG, priority 2015, dated 2021).

The target of test [1] is T1, human Fpn-GFP fusion construct (Homo sapiens, UniProt Q9NP59).
T1 construct: expressed in transfected cells; host or cells: HEK-293 cell line #354 (derivative of HEK-293 Tet-ON Advanced, Clontech)
T1 sequence (Q9NP59 1-571): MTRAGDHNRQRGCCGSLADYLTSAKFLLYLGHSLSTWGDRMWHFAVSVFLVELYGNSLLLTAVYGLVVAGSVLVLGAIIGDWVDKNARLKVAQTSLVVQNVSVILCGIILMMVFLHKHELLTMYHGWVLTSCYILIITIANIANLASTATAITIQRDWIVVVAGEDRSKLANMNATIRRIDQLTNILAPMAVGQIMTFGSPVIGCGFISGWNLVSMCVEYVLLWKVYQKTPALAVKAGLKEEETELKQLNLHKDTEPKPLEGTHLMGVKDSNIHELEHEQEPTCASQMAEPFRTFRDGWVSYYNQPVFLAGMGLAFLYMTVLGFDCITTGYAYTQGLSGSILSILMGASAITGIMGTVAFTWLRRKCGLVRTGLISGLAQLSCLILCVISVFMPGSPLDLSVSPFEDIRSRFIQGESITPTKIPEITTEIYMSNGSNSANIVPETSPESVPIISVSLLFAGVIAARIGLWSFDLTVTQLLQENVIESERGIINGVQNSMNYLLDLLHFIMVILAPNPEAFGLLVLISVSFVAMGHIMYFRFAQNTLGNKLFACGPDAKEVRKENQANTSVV
Put plainly: Inhibition of ferroportin mediated iron export activity in an iron response assay (BLAzer). It counts as cell-based. The conditions noted are these: average (AVE) of multiple measurements; HEK-293 cell line #354. An excerpt: Intracellular iron levels are indirectly measured in this assay by monitoring the activity of a beta-lactamase (BLA) reporter gene fused to the human ferritin promoter and the associated iron regulatory element (IRE) contained within the 5′ untranslated region of the ferritin mRNA. Expression of ferroportin (Fpn) in such a cell line leads to iron efflux and lower iron levels as reflected by lower activity of the reporter gene. On the other hand, inhibition of Fpn-mediated iron efflux results in elevated cellular iron levels which is detected as increased reporter gene activity. Small molecular weight Fpn inhibitor compounds were tested for dose-dependent effects in this in vitro iron response assay as described below.
The HEK-293 cell line #354 was generated by stable integration of (i) a human Fpn-GFP fusion construct inserted in a derivative of the doxycycline-inducible pTRE-Tight-BI plasmid (Clontech, Cat. 631068) and (ii) a human ferritin promoter-BLA reporter gene into a derivative of the HEK-293 Tet-ON Advanced cell line (Clontech). […] After overnight incubation, 10 μl/well of dilution series of the test compounds were added in quadruplicates and plates were further incubated overnight at 37° C. with 5% CO2. Cells were washed 3 times with HBSS leaving 25 μl per well. BLA activity was detected by adding 5 μl/well of the GeneBlazer reagent CCF4-AM (Invitrogen, Cat. K1085) to the cells. After incubation of the plates in the dark at 18° C. for 60 min., blue and green fluorescence signals were measured in a Safire2 fluorescence plate reader (Tecan) with excitation at 410 nm and emissions at 458 nm (blue) and 522 nm (green). The ratio of blue/green fluorescence as a measure for BLA activity was calculated and EC50 values were determined with the calculated blue/green fluorescence ratios as described for the hepcidin internalization assay.

The next test addresses T2, ferroportin (Fpn) (Mus musculus, UniProt Q9JHI9).
T2 construct: host or cells: J774 mouse macrophage cell line, Fe(III)-NTA induced
T2 sequence (Q9JHI9 1-570): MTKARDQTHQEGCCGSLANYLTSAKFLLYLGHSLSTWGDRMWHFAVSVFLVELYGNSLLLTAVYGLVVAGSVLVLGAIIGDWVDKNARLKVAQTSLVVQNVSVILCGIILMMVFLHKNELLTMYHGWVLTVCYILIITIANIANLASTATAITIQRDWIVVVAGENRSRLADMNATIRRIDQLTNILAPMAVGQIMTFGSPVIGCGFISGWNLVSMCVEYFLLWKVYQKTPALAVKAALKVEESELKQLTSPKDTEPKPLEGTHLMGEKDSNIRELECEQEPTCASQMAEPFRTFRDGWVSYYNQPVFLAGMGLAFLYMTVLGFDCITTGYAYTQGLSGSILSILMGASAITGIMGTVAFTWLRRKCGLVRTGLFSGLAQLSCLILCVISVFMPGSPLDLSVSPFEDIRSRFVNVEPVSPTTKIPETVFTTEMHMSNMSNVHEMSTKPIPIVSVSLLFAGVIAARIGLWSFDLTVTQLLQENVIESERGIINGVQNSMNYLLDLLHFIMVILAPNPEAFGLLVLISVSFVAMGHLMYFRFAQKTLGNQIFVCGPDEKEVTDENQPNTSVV
Put plainly: Hepcidin Internalization Assay (J774). It counts as cell-based. The conditions noted are these: average (AVE) of multiple measurements; TMR-hepcidin 25 nM, J774 cells. An excerpt: This cellular assay allows quantification of the binding of hepcidin to ferroportin (Fpn) through microscopic detection of internalization of a fluorescently labeled hepcidin into J774 cells. […] Binding of hepcidin to Fpn triggers internalization and degradation of both hepcidin and Fpn. However, the TMR (6-carboxytetramethylrhodamine) fluorophore attached to hepcidin remains associated with the cell after degradation of the hepcidin peptide backbone. Therefore, microscopic detection of cell-associated TMR fluorescence is a measure of hepcidin binding to Fpn and internalization of hepcidin and Fpn. If TMR-hepcidin is prevented from binding to Fpn, cellular TMR fluorescence remains low (Dürrenberger et al, 2013). The effect of small molecular weight Fpn inhibitor compounds in this assay was evaluated in vitro as described below.
After overnight incubation, cells were washed 3 times with pre-warmed DMEM w/o phenol red, 30 μl/well of DMEM w/o phenol red was added after the final wash and 10 μl/well of dilution series of test compounds were added in triplicates. […] Cells were incubated in a total volume of 50 μl at 37° C. with 5% CO2 for 2 hours, then Hoechst 33342 dye was added to a final concentration of 0.5 μg/ml to stain nuclei and further incubated for 10 min. at 37° C. with 5% CO2. Cells were washed 3 times with PBS and fixed in 100 μl of 4% paraformaldehyde in PBS for 15 min. at room temperature. After removal of the paraformaldehyde solution, cells were washed 3 times with PBS leaving 100 μl per well and the plates were sealed with foil plate seal. TMR (530-550 nm excitation/575-625 nm emission/400 ms exposure time) and Hoechst 33342 (360-370 nm excitation/420-460 nm emission/10 ms exposure time) fluorescence images were acquired using a ScanR plate imager (Olympus) with a 20× high NA objective. Four pictures were acquired per well and fluorescence channel covering ca. 1500 cells per well. The acquired image data was analysed with the ScanR image analysis software. Image analysis included detection of nuclei (Hoechst 33342 fluorescence), identification of cell-associated regions, application of a virtual channel and thresholding for rolling-ball-type background reduction, followed by application of the Sum(Mean) algorithm to measure the TMR fluorescence associated with cells as a quantitative measure for internalized TMR-hepcidin. IC50 values were calculated with the Sum(Mean) raw data using “log(inhibitor) vs. response” curve fitting of Prism 5 software (GraphPad Software Inc., version 5.02).

For orientation: EC50 means the concentration at which the effect is half-maximal. A higher EC50 goes with lower potency in that assay. Broadly, the IC50 is the concentration at which inhibition is half-maximal. Low values mean greater potency in that assay, high ones weaker potency in that assay. Consider `O=C(NCc1ncccc1F)c1csc(CCNCc2nc3ccccc3[nH]2)n1` [Example 40], for which the EC50 in test [1] worked out at 1450 nM. It took 49 nM to reach half-maximal inhibition against ferroportin (Fpn) (IC50).

The compound `O=C(NCc1ncccc1F)c1cnc(CCNCCc2nc3ccccc3[nH]2)o1` [Example 1] had an EC50 in test [1] of 930 nM. This compound also registered an IC50 on ferroportin (Fpn) of 12 nM.

`O=C(NCc1ncccc1F)c1cnn(CCNCCc2cc3ccccc3[nH]2)c1` [Example 277]: a half-maximal effect in test [1] (EC50) was put at 170 nM. In addition, it took 11 nM to reach half-maximal inhibition against ferroportin (Fpn) (IC50).

Compound `O=C(NCc1ncccc1F)c1cnc(C2CN(CCc3nc4ccccc4[nH]3)C2)o1` [Example 2] showed an EC50 in test [1] of 1030 nM. The IC50 at ferroportin (Fpn) was determined as 35 nM.
